# Source: patent US8314098B2, “Pyrazolo-pyrimidine compounds” (Ajinomoto Co., Inc., priority 2008, dated 2012)
# Tested on: IL-12p70 (the complex of IL-12p35 and p40)
# Experiment: IL-12p70 production inhibition in macrophages derived from mouse abdomen (IFN-γ/SAC stimulation, ELISA)
# Type: cell-based
# Conditions: Macrophage; mouse (Balb/c) abdominal macrophages, 100 ng/mL mouse IFN-γ + 0.05% SAC, overnight; TFA salts tested where prepared as such; read-out: IL-12p70-Inhibitory Activity IC50
# Description: One milliliter each of a 3% (w/v) thioglycolate solution was intraperitoneally administered to mice (female Balb/c mice), the abdominal cells of each mouse were recovered after 5 or 6 days from the administration of the thioglycolate solution and the adhesive cells were collected and used in the exaluation procedures. To a culture medium containing such adhesive cells, there were added 100 ng/mL of mouse interferon-γ and a 0.05% (v/v) liquid containing killed cells derived from Staphylococcus aureus Cowan I strain (SAC) and a candidate compound and then the mixture was cultivated overnight. After the completion of the cultivation, the survival ratios were determined, there were quantitatively determined the quantities of IL-12p70 (the complex of IL-12p35 and p40) and IL-12p40 or TNF-α according to the ELISA assays while making use of the recovered supernatant of the culture medium and the 50% production-inhibitory concentration (IC50) was calculated for each case (see Table 1 and Tables 1-9 for IL-12p70 and TNF-α and Tables 1 to 10 for IL-12p40).
row,SMILES,IC50
1,"Cc1cccc(/C=N/Nc2cc(N3CCOCC3)n3nc(-c4cncnc4)cc3n2)c1 [Compound 124, N-(3-methyl-benzylidene)-N′-(7-morpholin-4-yl-2-pyrimidin-5-yl-pyrazolo[1,5-a]pyrimidin-5-yl)-hydrazine]",20 nM
2,"COCCN(CCOC)c1ccc(-c2cc3nc(N/N=C/c4cccc(C)c4)cc(N4CCOCC4)n3n2)cc1 [Compound 32, N-{2-[4-bis-(2-methoxy-ethyl-amino)-phenyl]-7-morpholin-4-yl-pyrazolo[1,5-a]pyrimidin-5-yl}-N′-(3-methyl-benzylidene)-hydrazine]",9.6 nM
3,"C(=N\Nc1cc(N2CCOCC2)n2nc(-c3cnccn3)cc2n1)/c1c[nH]c2ccccc12 [Compound 93, N-(1H-indol-3-yl-methylidene)-N′-(7-morpholin-4-yl-2-pyrazin-2-yl-pyrazolo[1,5-a]pyrimidin-5-yl)-hydrazine]",6.5 nM
4,"OB(O)c1cccc(/C=N/Nc2cc(N3CCOCC3)n3nc(-c4ccccc4)cc3n2)c1 [Compound 139, N-(3-boronyl-benzylidene)-N-(7-morpholin-4-yl-2-phenyl-pyrazolo[1,5-a]pyrimidin-5-yl)-hydrazine]",250 nM
5,"C(=N\Nc1cc(N2CCOCC2)n2nc(-c3ccccc3)cc2n1)/c1cccs1 [Compound 61, N-(7-morpholin-4-yl-2-phenyl-pyrazolo[1,5-a]pyrimidin-5-yl)-N′-(thiophen-2-yl-methylidene)-hydrazine]",370 nM
6,"Cc1ccc(/C=N/Nc2cc(N3CCOCC3)n3nc(-c4ccccc4)cc3n2)o1 [Compound 54, N-(5-methyl-furan-2-yl-methylidene)-N′-(7-morpholin-4-yl-2-phenyl-pyrazolo[1,5-a]pyrimidin-5-yl)-hydrazine]",300 nM
7,"Cc1[nH]c2ccccc2c1/C=N/Nc1cc(N2CCOCC2)n2nc(-c3ccccc3)cc2n1 [Compound 78, N-(2-methyl-1H-indol-3-yl-methylidene)-N′-(7-morpholin-4-yl-2-phenyl-pyrazolo[1,5-a]pyrimidin-5-yl)-hydrazine]",440 nM

# Further molecules by falling IC50, results first:
row,IC50,SMILES
1,320 nM,"Cc1ccsc1/C=N/Nc1cc(N2CCOCC2)n2nc(-c3ccccc3)cc2n1 [Compound 62, N-(3-methyl-thiophen-2-yl-methylidene)-N′-(7-morpholin-4-yl-2-phenyl-pyrazolo[1,5-a]pyrimidin-5-yl)-hydrazine]"
2,190 nM,"C(=N\Nc1cc(N2CCOCC2)n2nc(-c3ccccc3)cc2n1)/c1cccc2[nH]ccc12 [Compound 72, N-(1H-indol-4-yl-methylidene)-N′-(7-morpholin-4-yl-2-phenyl-pyrazolo[1,5-a]pyrimidin-5-yl)-hydrazine]"
3,180 nM,"COc1ccc(/C=N/Nc2cc(N3CCOCC3)n3nc(-c4ccccc4)cc3n2)cc1 [Compound 30, N-(4-methoxy-benzylidene)-N′-(7-morpholin-4-yl-2-phenyl-pyrazolo[1,5-a]pyrimidin-5-yl)-hydrazine]"
4,160 nM,"Cc1cccc(/C=N/Nc2cc(N3CCOCC3)n3nc(N4CCOCC4)cc3n2)c1 [Compound 127, N-(3-methyl-benzylidene)-N-(2,7-dimorpholin-4-yl-pyrazolo[1,5-a]-pyrimidin-5-yl)-hydrazine]"
5,140 nM,"Fc1cccc(/C=N/Nc2cc(N3CCOCC3)n3nc(-c4ccncc4)cc3n2)c1 [Compound 130, N-(3-fluoro-benzylidene)-N′-(7-morpholin-4-yl-2-pyridin-4-yl-pyrazolo[1,5-a]pyrimidin-5-yl)-hydrazine]"
6,26 nM,"Cc1cccc(/C=N/Nc2cc(N3CCOCC3)n3nc(-c4cc(C)on4)cc3n2)c1 [Compound 98, N-(3-methyl-benzylidene)-N′-[2-(5-methylisoxazol-3-yl)-7-morpholin-4-yl-pyrazolo[1,5-a]pyrimidin-5-yl]-hydrazine]"
7,16 nM,"Cc1cc(-c2cc3nc(N/N=C/c4c[nH]c5ccccc45)cc(N4CCOCC4)n3n2)no1 [Compound 99, N-(1H-indol-3-yl-methylidene)-N′-[2-(5-methylisoxazol-3-yl)-7-morpholin-4-yl-pyrazolo[1,5-a]pyrimidin-5-yl]-hydrazine]"
